# Data taken from patent US10179816B2, “Pharmaceutical compositions comprising an antibody which binds the human anti-Müllerian hormone receptor type II” (LABORATOIRE FRANCAIS DU FRACTIONNEMENT DES BIOTECHNOLOGIES, priority 2011, dated 2019).
# Several values for one entry are separate records, joined by “and”; a condition that tells them apart may be missing. Equal entries are not always repeated. Entries after “also recorded” stand apart in the source; their conditions may differ.
# Test system: Cov434-AMHRII Asc1a5 (cell line of human ovarian cancer transfected with cDNA AMHRII)
# Assay: Anti-tumour activity of 3C23K alone or with carboplatin in Cov434-AMHRII Asc1a5 xenograft (tumour volume, T/C ratio, statistical analysis)
# Type: in vivo, female Swiss nude mouse
# Protocol: The 3C23K antibody was evaluated according to the following scheme: 2 times per week for 6 weeks, for a total of 12 injections at about 10 mg/kg/injection, said administration regimen being designated below as “Q3-4D12”. Another group of mice was treated with an irrelevant antibody LFB-R565, administered at about 10 mg/kg/injection, according to the regimen Q3-4D12.
# Carboplatin was evaluated, at a sub-optimum dose, i.e. about 60 mg/kg/injection, according to the following scheme: once a week, for 4 weeks, said administration regimen being designated below as “Q7D4”.
# Carboplatin was also evaluated in combination with the 3C23K antibody or with the irrelevant antibody LFB-R565. Carboplatin was administered at about 60 mg/kg/injection according to the Q7D4 regimen and the 3C23K antibody or the irrelevant antibody LFB-R565 at about 10 mg/kg/injection according to the regimen Q3-4D12.
# The mice were randomized on D11, when the volume of the tumours was between 50 and 158 mm^3, and the treatments began on D13 (9 mice per group).
# The tumours were usually measured twice weekly.
# The curves of the individual volume of the tumours were plotted.
# In one experiment with 9 mice per group, the curves and analyses were therefore stopped when fewer than 8 values per group had been obtained (8 mice alive).
# A Kruskal-Wallis test was also carried out.
# [1] = D11, randomization, before treatment
substance,measurement,setting,value
"3C23K: mutated humanized 12G4 monoclonal antibody binding AMHR-II, produced by the 3C23K clone; light chain SEQ ID NO: 11, heavy chain SEQ ID NO: 13",Individual tumour volume,[1],98 mm^3 and 90 mm^3 and 61 mm^3 and 80 mm^3 and 57 mm^3 and 147 mm^3 and 113 mm^3 and 72 mm^3
same,Mean tumour volume,[1],88 mm^3
same,Median tumour volume,[1],80 mm^3
same,Individual tumour volume,D14,104 mm^3 and 179 mm^3 and 60 mm^3 and 72 mm^3 and 67 mm^3 and 216 mm^3 and 166 mm^3 and 84 mm^3
same,Mean tumour volume,D14,111 mm^3
same,Median tumour volume,D14,84 mm^3
same,Individual tumour volume,D18,72 mm^3 (2×) and 88 mm^3 and 36 mm^3 and 21 mm^3 and 41 mm^3 and 140 mm^3 and 80 mm^3
same,Mean tumour volume,D18,67 mm^3
same,Median tumour volume,D18,72 mm^3
same,Individual tumour volume,D22,60 mm^3 and 150 mm^3 and 30 mm^3 and 0 mm^3 and 36 mm^3 and 131 mm^3 and 77 mm^3 and 158 mm^3
same,Mean tumour volume,D22,79 mm^3
same,Median tumour volume,D22,70 mm^3
same,Individual tumour volume,D25,0 mm^3 (3×) and 126 mm^3 and 24 mm^3 and 180 mm^3 and 74 mm^3 and 216 mm^3
same,Mean tumour volume,D25,79 mm^3
same,Median tumour volume,D25,74 mm^3
same,Individual tumour volume,D29,0 mm^3 (2×) and 322 mm^3 and 27 mm^3 and 48 mm^3 and 225 mm^3 and 146 mm^3 and 385 mm^3
same,Mean tumour volume,D29,151 mm^3
same,Median tumour volume,D29,146 mm^3
same,Individual tumour volume,D32,0 mm^3 (2×) and 501 mm^3 and 27 mm^3 and 15 mm^3 and 275 mm^3 and 180 mm^3 and 644 mm^3
same,Mean tumour volume,D32,221 mm^3
same,Median tumour volume,D32,180 mm^3
same,Individual tumour volume,D36,0 mm^3 (3×) and 653 mm^3 and 87 mm^3 and 363 mm^3 and 182 mm^3 and 784 mm^3
same,Mean tumour volume,D36,278 mm^3
same,Median tumour volume,D36,182 mm^3
same,Individual tumour volume,D39,0 mm^3 (3×) and 784 mm^3 and 210 mm^3 and 315 mm^3 and 182 mm^3 and 1200 mm^3 and 546 mm^3
same,Mean tumour volume,D39,360 mm^3
same,Median tumour volume,D39,210 mm^3
same,Individual tumour volume,D43,0 mm^3 (3×) and 1171 mm^3 and 420 mm^3 and 631 mm^3 and 393 mm^3 and 1403 mm^3 and 731 mm^3
same,Mean tumour volume,D43,528 mm^3
same,Median tumour volume,D43,420 mm^3
same,Individual tumour volume,D46,0 mm^3 (3×) and 1683 mm^3 and 598 mm^3 and 504 mm^3 and 275 mm^3 and 1650 mm^3 and 518 mm^3
same,Mean tumour volume,D46,581 mm^3
same,Median tumour volume,D46,504 mm^3
same,Individual tumour volume,D49,0 mm^3 (3×) and 1870 mm^3 and 1188 mm^3 and 784 mm^3 and 655 mm^3 and 2646 mm^3 and 945 mm^3
same,Mean tumour volume,D49,899 mm^3
same,Median tumour volume,D49,784 mm^3
same,Anti-tumour activity (in words),"carboplatin study, comparator as stated in the sentence",significant anti-tumour activity; also recorded: anti-tumour effect greater than carboplatin; also recorded: exerts anti-tumour activity
same,T/C ratio,"relative to Control group, D11 (before treatment)",88%
same,T/C ratio,"relative to Control group, D14",52%
same,T/C ratio,"relative to Control group, D18",33%
same,T/C ratio,"relative to Control group, D22",18%
same,T/C ratio,"relative to Control group, D25",17%
same,T/C ratio,"relative to Control group, D29",23%
same,T/C ratio,"relative to Control group, D32",18%
same,T/C ratio,"relative to Control group, D36",12%
same,T/C ratio,"relative to LFB-R565, after D18 up to D36",less than 26%
same,T/C ratio,"relative to LFB-R565 group, D11 (before treatment)",99%
same,T/C ratio,"relative to LFB-R565 group, D14",55%
same,T/C ratio,"relative to LFB-R565 group, D18",41%
same,T/C ratio,"relative to LFB-R565 group, D22",26%
same,T/C ratio,"relative to LFB-R565 group, D25",18%
same,T/C ratio,"relative to LFB-R565 group, D29",21%
same,T/C ratio,"relative to LFB-R565 group, D32",26%
same,T/C ratio,"relative to LFB-R565 group, D36",10%
same,T/C ratio,"relative to carboplatin group, D11 (before treatment)",99%
same,T/C ratio,"relative to carboplatin group, D14",63%
same,T/C ratio,"relative to carboplatin group, D18",64%
same,T/C ratio,"relative to carboplatin group, D22",26%
same,T/C ratio,"relative to carboplatin group, D25",31%
same,T/C ratio,"relative to carboplatin group, D29",41%
same,T/C ratio,"relative to carboplatin group, D32",39%
same,T/C ratio,"relative to carboplatin group, D36",29%
same,T/C ratio,"relative to carboplatin group, D39",32%
same,T/C ratio,"relative to carboplatin group, D43",48%
same,T/C ratio,"relative to carboplatin group, from D22 to D39",less than 42%
same,T/C ratio,"relative to control, after D18 (from D22) up to D36",less than 23%
